What follows are compounds tested against T1, recombinant human baculovirus-expressed GST-tagged FASN (Homo sapiens, UniProt P49327) (assay: biochemical). Conditions: not given.
T1 construct: GST
T1 sequence (P49327 whole entry): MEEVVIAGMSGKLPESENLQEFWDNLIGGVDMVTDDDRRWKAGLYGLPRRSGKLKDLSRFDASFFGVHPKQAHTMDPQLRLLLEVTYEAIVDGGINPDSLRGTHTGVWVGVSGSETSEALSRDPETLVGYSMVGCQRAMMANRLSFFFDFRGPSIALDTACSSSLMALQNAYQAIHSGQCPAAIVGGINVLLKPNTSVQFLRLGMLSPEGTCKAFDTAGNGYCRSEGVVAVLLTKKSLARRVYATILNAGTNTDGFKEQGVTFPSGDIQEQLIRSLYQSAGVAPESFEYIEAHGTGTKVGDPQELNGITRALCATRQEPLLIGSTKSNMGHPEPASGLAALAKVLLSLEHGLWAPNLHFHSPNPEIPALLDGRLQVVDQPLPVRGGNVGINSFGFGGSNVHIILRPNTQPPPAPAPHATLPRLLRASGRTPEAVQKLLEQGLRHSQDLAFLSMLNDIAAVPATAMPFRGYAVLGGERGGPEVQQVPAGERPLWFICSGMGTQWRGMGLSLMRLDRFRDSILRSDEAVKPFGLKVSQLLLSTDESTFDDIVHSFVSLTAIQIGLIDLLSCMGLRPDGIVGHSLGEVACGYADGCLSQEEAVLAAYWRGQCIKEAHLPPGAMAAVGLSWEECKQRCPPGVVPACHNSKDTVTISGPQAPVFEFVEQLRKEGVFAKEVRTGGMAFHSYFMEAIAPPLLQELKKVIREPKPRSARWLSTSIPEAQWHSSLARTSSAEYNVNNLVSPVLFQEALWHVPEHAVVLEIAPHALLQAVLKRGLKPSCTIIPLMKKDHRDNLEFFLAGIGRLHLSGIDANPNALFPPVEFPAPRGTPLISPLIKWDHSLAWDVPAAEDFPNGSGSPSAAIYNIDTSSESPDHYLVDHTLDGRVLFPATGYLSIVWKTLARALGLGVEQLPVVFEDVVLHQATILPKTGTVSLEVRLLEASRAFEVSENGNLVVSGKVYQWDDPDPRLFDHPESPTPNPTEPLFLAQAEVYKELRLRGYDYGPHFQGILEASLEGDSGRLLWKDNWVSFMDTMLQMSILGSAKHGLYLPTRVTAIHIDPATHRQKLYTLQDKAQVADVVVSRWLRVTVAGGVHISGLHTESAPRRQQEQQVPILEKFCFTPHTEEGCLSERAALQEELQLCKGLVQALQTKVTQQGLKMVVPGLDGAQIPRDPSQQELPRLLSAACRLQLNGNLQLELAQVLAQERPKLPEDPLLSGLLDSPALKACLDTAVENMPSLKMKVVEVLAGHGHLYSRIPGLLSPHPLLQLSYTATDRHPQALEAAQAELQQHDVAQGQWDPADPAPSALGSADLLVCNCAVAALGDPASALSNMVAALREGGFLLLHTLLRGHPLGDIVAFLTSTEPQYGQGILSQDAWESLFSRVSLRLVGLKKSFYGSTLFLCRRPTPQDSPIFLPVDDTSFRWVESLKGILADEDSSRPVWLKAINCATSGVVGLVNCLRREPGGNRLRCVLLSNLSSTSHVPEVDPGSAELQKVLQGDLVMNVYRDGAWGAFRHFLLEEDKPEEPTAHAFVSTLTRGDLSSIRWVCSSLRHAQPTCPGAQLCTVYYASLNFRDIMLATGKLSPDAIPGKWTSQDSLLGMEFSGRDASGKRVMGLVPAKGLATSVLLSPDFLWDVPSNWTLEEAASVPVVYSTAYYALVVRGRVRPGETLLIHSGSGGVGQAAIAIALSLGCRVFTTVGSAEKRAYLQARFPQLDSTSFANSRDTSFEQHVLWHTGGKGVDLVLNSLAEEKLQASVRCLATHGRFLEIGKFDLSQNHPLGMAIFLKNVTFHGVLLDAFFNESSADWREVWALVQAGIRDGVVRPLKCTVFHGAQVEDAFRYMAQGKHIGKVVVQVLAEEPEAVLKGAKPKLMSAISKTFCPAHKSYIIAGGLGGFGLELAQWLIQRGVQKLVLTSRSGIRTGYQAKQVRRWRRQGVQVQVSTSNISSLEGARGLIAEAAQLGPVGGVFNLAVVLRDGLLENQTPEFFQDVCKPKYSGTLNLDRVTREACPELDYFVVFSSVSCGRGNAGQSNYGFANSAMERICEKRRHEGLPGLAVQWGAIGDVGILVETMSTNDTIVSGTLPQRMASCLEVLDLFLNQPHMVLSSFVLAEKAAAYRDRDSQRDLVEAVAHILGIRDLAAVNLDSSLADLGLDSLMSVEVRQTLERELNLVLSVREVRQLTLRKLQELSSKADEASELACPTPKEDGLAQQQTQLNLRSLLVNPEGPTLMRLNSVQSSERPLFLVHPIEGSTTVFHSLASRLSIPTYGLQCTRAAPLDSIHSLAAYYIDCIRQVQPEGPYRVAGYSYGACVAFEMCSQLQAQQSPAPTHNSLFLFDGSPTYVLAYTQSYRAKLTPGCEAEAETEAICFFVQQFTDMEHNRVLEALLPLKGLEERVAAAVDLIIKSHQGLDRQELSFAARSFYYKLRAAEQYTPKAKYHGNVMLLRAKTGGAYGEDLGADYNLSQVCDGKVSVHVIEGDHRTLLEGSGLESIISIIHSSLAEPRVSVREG

`CCOC(=O)N1CCC2(CC1)OCc1cc(-c3ccc4cccnc4c3)ccc1O2` [Example 30, Ethyl 6-(7-quinolyl)spiro[4H-1,3-benzodioxine-2,4′-piperidine]-1′-carboxylate] and `CC(C)C(=O)N1CCC2(CC1)OCc1cc(-c3ccc4cccnc4c3)ccc1O2` [Example 31, 2-Methyl-1-[6-(7-quinolyl)spiro[4H-1,3-benzodioxine-2,4′-piperidine]-1′-yl]propan-1-one] fall in the same range of IC50: 1 to 99 nM for the first, 1 to 99 nM for the second.

Compared with `O=C(C1CC1)N1CCC2(CC1)OCc1cc(-c3ccc4cccnc4c3)ccc1O2` [Example 32, Cyclopropyl-[6-(7-quinolyl)spiro[4H-1,3-benzodioxine-2,4′-piperidine]-1′-yl]methanone], `O=C(C1CC1)N1CCC2(CC1)OCc1cc(-c3cnc4cccnc4c3)ccc1O2` [Example 37, Cyclopropyl-[6-(1,5-naphthyridin-3-yl)spiro[4H-1,3-benzodioxine-2,4′-piperidine]-1′-yl]methanone] is higher in IC50: 1 to 99 nM for the first, 1000 to 10000 nM for the second.

`CCC(=O)N1CCC2(CC1)OCc1cc(-c3cnc4ccccc4c3)ccc1O2` [Example 33, 1-[6-(3-Quinolyl)spiro[4H-1,3-benzodioxine-2,4′-piperidine]-1′-yl]propan-1-one] and `CC(C)C(=O)N1CCC2(CC1)OCc1cc(-c3cnc4ccccc4c3)ccc1O2` [Example 34, 2-Methyl-1-[6-(3-quinolyl)spiro[4H-1,3-benzodioxine-2,4′-piperidine]-1′-yl]propan-1-one] fall in the same range of IC50: 1 to 99 nM for the first, 1 to 99 nM for the second.

`CCOC(=O)N1CCC2(CC1)OCc1cc(-c3cnc4cccnc4c3)ccc1O2` [Example 35, Ethyl 6-(1,5-naphthyridin-3-yl)spiro[4H-1,3-benzodioxine-2,4′-piperidine]-1′-carboxylate] and `CCC(=O)N1CCC2(CC1)OCc1cc(-c3cnc4cccnc4c3)ccc1O2` [Example 36, 1-[6-(1,5-Naphthyridin-3-yl)spiro[4H-1,3-benzodioxine-2,4′-piperidine]-1′-yl]propan-1-one] fall in the same range of IC50: 1000 to 10000 nM for the first, 1000 to 10000 nM for the second.

`O=C(C1CC1)N1CCC2(CC1)OCc1cc(-c3cnc4ccccc4c3)ccc1O2` [Example 40, Cyclopropyl-[6-(3-quinolyl)spiro[4H-1,3-benzodioxine-2,4′-piperidine]-1′-yl]methanone] and `O=C(C1CCC1)N1CCC2(CC1)OCc1cc(-c3cnc4ccccc4c3)ccc1O2` [Example 41, Cyclobutyl-[6-(3-quinolyl)spiro[4H-1,3-benzodioxine-2,4′-piperidine]-1′-yl]methanone] fall in the same range of IC50: 1 to 99 nM for the first, 1 to 99 nM for the second.

`O=C([C@H]1CCCO1)N1CCC2(CC1)OCc1cc(-c3cnc4ccccc4c3)ccc1O2` [Example 48, [6-(3-Quinolyl)spiro[4H-1,3-benzodioxine-2,4′-piperidine]-1′-yl]-[(2R)-tetrahydrofuran-2-yl]methanone] and `Cc1c(-c2ccc3c(c2)COC2(CCN(C(=O)[C@H]4CCCO4)CC2)O3)cnc2ccccc12` [Example 51] fall in the same range of IC50: 1 to 99 nM for the first, 1 to 99 nM for the second.

`COc1c(-c2ccc3c(c2)COC2(CCN(C(=O)C4CC4)CC2)O3)ccc2cccnc12` [Example 49, Cyclopropyl-[6-(8-methoxy-7-quinolyl)spiro[4H-1,3-benzodioxine-2,4′-piperidine]-1′-yl]methanone] and `Cc1c(-c2ccc3c(c2)COC2(CCN(C(=O)C4CC4)CC2)O3)ccc2cccnc12` [Example 54, Cyclopropyl-[6-(8-methyl-7-quinolyl)spiro[4H-1,3-benzodioxine-2,4′-piperidine]-1′-yl]methanone] fall in the same range of IC50: 1 to 99 nM for the first, 1 to 99 nM for the second.

`Cc1c(-c2ccc3c(c2)COC2(CCN(C(=O)[C@H]4CCCO4)CC2)O3)ccc2cccnc12` [Example 50, [6-(8-Methyl-7-quinolyl)spiro[4H-1,3-benzodioxine-2,4′-piperidine]-1′-yl]-[(2R)-tetrahydrofuran-2-yl]methanone] and `O=C([C@H]1CCCO1)N1CCC2(CC1)OCc1cc(-c3ccc4cccnc4c3Cl)ccc1O2` [Example 59, [6-(8-Chloro-7-quinolyl)spiro[4H-1,3-benzodioxine-2,4′-piperidine]-1′-yl]-[(2R)-tetrahydrofuran-2-yl]methanone] fall in the same range of IC50: 1 to 99 nM for the first, 1 to 99 nM for the second.

`CCC(=O)N1CCC2(CC1)OCc1cc(-c3cnc4ccccc4c3C)ccc1O2` [Example 52, 1-[6-(4-Methyl-3-quinolyl)spiro[4H-1,3-benzodioxine-2,4′-piperidine]-1′-yl]propan-1-one] and `CCC(=O)N1CCC2(CC1)OCc1cc(-c3ccc4cccnc4c3C)ccc1O2` [Example 53, 1-[6-(8-Methyl-7-quinolyl)spiro[4H-1,3-benzodioxine-2,4′-piperidine]-1′-yl]propan-1-one] fall in the same range of IC50: 1 to 99 nM for the first, 1 to 99 nM for the second.

`CCC(=O)N1CCC2(CC1)OCc1cc(-c3ccc4cccnc4c3OC)ccc1O2` [Example 55, 1-[6-(8-Methoxy-7-quinolyl)spiro[4H-1,3-benzodioxine-2,4′-piperidine]-1′-yl]propan-1-one] and `CCC(=O)N1CCC2(CC1)OCc1cc(-c3ccc4cccnc4c3Cl)ccc1O2` [Example 57, 1-[6-(8-Chloro-7-quinolyl)spiro[4H-1,3-benzodioxine-2,4′-piperidine]-1′-yl]propan-1-one] fall in the same range of IC50: 1 to 99 nM for the first, 1 to 99 nM for the second.

`COc1c(-c2ccc3c(c2)COC2(CCN(C(=O)[C@H]4CCCO4)CC2)O3)ccc2cccnc12` [Example 56, [6-(8-Methoxy-7-quinolyl)spiro[4H-1,3-benzodioxine-2,4′-piperidine]-1′-yl]-[(2R)-tetrahydrofuran-2-yl]methanone] and `O=C(C1CC1)N1CCC2(CC1)OCc1cc(-c3ccc4cccnc4c3Cl)ccc1O2` [Example 58, [6-(8-Chloro-7-quinolyl)spiro[4H-1,3-benzodioxine-2,4′-piperidine]-1′-yl]-cyclopropyl-methanone] fall in the same range of IC50: 1 to 99 nM for the first, 1 to 99 nM for the second.

`CC(=O)OCC(=O)N1CCC2(CC1)OCc1cc(-c3ccc4cccnc4c3C)ccc1O2` [Example 60, [2-[6-(8-methyl-7-quinolyl)spiro[4H-1,3-benzodioxine-2,4′-piperidine]-1′-yl]-2-oxo-ethyl]acetate] and `Cc1c(-c2ccc3c(c2)COC2(CCN(C(=O)CO)CC2)O3)ccc2cccnc12` [Example 62, 2-Hydroxy-1-[6-(8-methyl-7-quinolyl)spiro[4H-1,3-benzodioxine-2,4′-piperidine]-1′-yl]ethanone] fall in the same range of IC50: 100 to 999 nM for the first, 100 to 999 nM for the second.

Same assay, conditions: 5 nM FASN, 150 μM NADPH, 10 μM acetyl-CoA, 25 μM malonyl-CoA, 90 minutes incubation; read-out: IC50 data for Compounds of Formula I, Activity

`Cc1c(-c2ccc3c(c2)CCC2(CCN(C(=O)[C@H]4CCCO4)CC2)O3)ccc2nccn12` [Example 28, [6-(5-Methylimidazo[1,2-a]pyridin-6-yl)spiro[chromane-2,4′-piperidine]-1′-yl]-[(2R)-tetrahydrofuran-2-yl]methanone] and `O=C(NOC1CCCCO1)N1CCC2(CCc3cc(-c4ccc5cccnc5c4Cl)ccc3O2)CC1` (stereo not shown) [Example 65, 6-(8-Chloro-7-quinolyl)-N-tetrahydropyran-2-yloxy-spiro[chromane-2,4′-piperidine]-1′-carboxamide] fall in the same range of IC50: 1 to 99 nM for the first, 1 to 99 nM for the second.

First: CCC(=O)N1CCC2(CC1)CC(=O)c1cc(-c3cnc4ccccc4c3)ccc1O2 [Example 38, 1′-Propanoyl-6-(3-quinolyl)spiro[chromane-2,4′-piperidine]-4-one]
Second: COC(=O)N1CCC2(CC1)CC(=O)c1cc(-c3cnc4ccccc4c3)ccc1O2 [Example 39, Methyl 4-oxo-6-(3-quinolyl)spiro[chromane-2,4′-piperidine]-1′-carboxylate]
The IC50 of the first is lower: 100 to 999 nM for the first, 1000 to 10000 nM for the second. The first is the more potent here.

`CCC(=O)N1CCC2(CC1)CC(O)c1cc(-c3cnc4ccccc4c3)ccc1O2` (stereo not shown) [Example 42, 1-[4-Hydroxy-6-(3-quinolyl)spiro[chromane-2,4′-piperidine]-1′-yl]propan-1-one] and `O=C(C1CC1)N1CCC2(CC1)CC(O)c1cc(-c3cnc4ccccc4c3)ccc1O2` (stereo not shown) [Example 46, Cyclopropyl-[4-hydroxy-6-(3-quinolyl)spiro[chromane-2,4′-piperidine]-1′-yl]methanone] fall in the same range of IC50: 100 to 999 nM for the first, 100 to 999 nM for the second.

`CCC(=O)N1CCC2(C=Cc3cc(-c4cnc5ccccc5c4)ccc3O2)CC1` [Example 43, 1-[6-(3-Quinolyl)spiro[chromene-2,4′-piperidine]-1′-yl]propan-1-one] and `O=C(C1CC1)N1CCC2(C=Cc3cc(-c4cnc5ccccc5c4)ccc3O2)CC1` [Example 44, Cyclopropyl-[6-(3-quinolyl)spiro[chromene-2,4′-piperidine]-1′-yl]methanone] fall in the same range of IC50: 1 to 99 nM for the first, 1 to 99 nM for the second.

`O=C(C1CCC1)N1CCC2(C=Cc3cc(-c4cnc5ccccc5c4)ccc3O2)CC1` [Example 45, Cyclobutyl-[6-(3-quinolyl)spiro[chromene-2,4′-piperidine]-1′-yl]methanone] and `CCC(=O)N1CCC2(CCc3cc(-c4cnc5ccccc5c4)ccc3O2)CC1` [Example 47, 1-[6-(3-Quinolyl)spiro[chromane-2,4′-piperidine]-1′-yl]propan-1-one] fall in the same range of IC50: 1 to 99 nM for the first, 1 to 99 nM for the second.

First: Cc1c(-c2ccc3c(c2)CCC2(CCN(C(=O)CO)CC2)O3)ccc2cccnc12 [Example 61, 2-Hydroxy-1-[6-(8-methyl-7-quinolyl)spiro[chromane-2,4′-piperidine]-1′-yl]-ethanone]
Second: O=C(CO)N1CCC2(CCc3cc(-c4ccc5cccnc5c4Cl)ccc3O2)CC1 [Example 67, 1-[6-(8-chloro-7-quinolyl)spiro[chromane-2,4′-piperidine]-1′-yl]-2-hydroxy-ethanone]
The IC50 of the first is lower: 100 to 999 nM for the first, 1000 to 10000 nM for the second.

Compared with `NC(=O)N1CCC2(CCc3cc(-c4ccc5cccnc5c4Cl)ccc3O2)CC1` [Example 63, 6-(8-Chloro-7-quinolyl)spiro[chromane-2,4′-piperidine]-1′-carboxamide], `O=C(NO)N1CCC2(CCc3cc(-c4ccc5cccnc5c4Cl)ccc3O2)CC1` [Example 68, 6-(8-Chloro-7-quinolyl)spiro[chromane-2,4′-piperidine]-1′-carbohydroxamic acid] is higher in IC50: 1 to 99 nM for the first, 100 to 999 nM for the second.

Compared with `CC(=O)OCC(=O)N1CCC2(CCc3cc(-c4ccc5cccnc5c4Cl)ccc3O2)CC1` [Example 64, [2-[6-(8-chloro-7-quinolyl)spiro[chromane-2,4′-piperidine]-1′-yl]-2-oxo-ethyl]acetate], `CCNC(=O)N1CCC2(CCc3cc(-c4ccc5cccnc5c4Cl)ccc3O2)CC1` [Example 66, 6-(8-chloro-7-quinolyl)-N-ethyl-spiro[chromane-2,4′-piperidine]-1′-carboxamide] is lower in IC50: 100 to 999 nM for the first, 1 to 99 nM for the second.
